Measurements published in patent US9187472B2 (AbbVie Inc., priority 2012, dated 2015).
pIC50: −log10 of the molar value.

Legend:
[1] = biological target: NAMPT (human, recombinant, C-terminally His-tagged) (Homo sapiens, UniProt P43490); experiment: Time-Resolved Fluorescence Resonance Energy Transfer (TR-FRET) Binding Assay of NAMPT; details: without substrates; 6.8 nM NAMPT, 200 nM probe, 3 hours equilibration
Method in brief: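 Competitive binding against an Oregon Green 488 tracer (200 nM), 6.8 nM His-tagged enzyme, 1 nM Tb antibody, 2% DMSO, 3 h at RT. IC50 derived from TR-FRET ratios.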

PC3 cells = experiment: NAMPT Cell Proliferation Assay; format: cell-based; details: Homo sapiens, PC-3, 120 h, 5 days incubation, cell viability by Cell Titer Glo
Method in brief: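 Cell Titer Glo viability after 5-day exposure (37° C, 5% CO2); PC3, 500 cells/well, RPMI + 10% heat-inactivated FBS, overnight attachment before dosing. Dose range 10 μM to 1×10^−5 μM, 10-fold steps. IC50 = sigmoidal fit of % inhibition.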

NAMPT = NAMPT (Homo sapiens, UniProt P43490); experiment: TR-FRET Binding Assay of NAMPT with PRPP; details: with 200 μM PRPP and 2.5 mM ATP; 2 nM NAMPT, 2 nM probe, 16 hours equilibration
Method in brief: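 Read-out is TR-FRET after a 16 h equilibration allowing possible compound modification by the enzyme. Final mix: 2 nM NAMPT, 2 nM probe, 1 nM Tb-anti-His antibody, 200 μM PRPP, 2.5 mM ATP, 2% DMSO.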

NAMPT (human, recombinant, C-terminally His-tagged), sequence (P43490 whole entry): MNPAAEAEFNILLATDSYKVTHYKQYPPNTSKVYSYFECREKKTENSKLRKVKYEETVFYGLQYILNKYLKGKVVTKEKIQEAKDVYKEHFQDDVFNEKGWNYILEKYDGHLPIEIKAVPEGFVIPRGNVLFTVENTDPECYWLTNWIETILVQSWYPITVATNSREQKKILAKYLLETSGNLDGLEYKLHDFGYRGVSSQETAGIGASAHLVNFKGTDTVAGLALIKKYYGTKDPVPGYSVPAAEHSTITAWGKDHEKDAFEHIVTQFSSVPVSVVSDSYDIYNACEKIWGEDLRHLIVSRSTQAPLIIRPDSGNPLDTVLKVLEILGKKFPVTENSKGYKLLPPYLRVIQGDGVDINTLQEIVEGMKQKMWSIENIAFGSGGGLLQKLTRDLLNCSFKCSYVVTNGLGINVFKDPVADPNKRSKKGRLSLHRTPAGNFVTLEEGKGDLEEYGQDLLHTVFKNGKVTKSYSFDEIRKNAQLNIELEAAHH
NAMPT, sequence (P43490 whole entry): as above

| SMILES | pIC50 [1] | pIC50 (PC3 cells) | pIC50 (NAMPT) |
| --- | --- | --- | --- |
| O=C(NCc1ccc2nccn2c1)c1ccc(OC2CCN(C(=O)CC3CCCO3)CC2)cc1 (stereo not drawn) [Example 173, N-(imidazo[1,2-a]pyridin-6-ylmethyl)-4-{[1-(tetrahydrofuran-2-ylacetyl)piperidin-4-yl]oxy}benzamide] | 5.82 | 7.30 | 8.91 |
| O=C(NCc1ccn2ccnc2c1)c1ccc(OC2CCN(C(=O)[C@@H]3CCCO3)CC2)cc1 [Example 419, N-(imidazo[1,2-a]pyridin-7-ylmethyl)-4-({1-[(2S)-tetrahydrofuran-2-ylcarbonyl]piperidin-4-yl}oxy)benzamide] | 5.61 | 6.44 | 9.71 |
| O=C(NCc1ccc2nccn2c1)c1cnc(N(CC2CCCO2)C(=O)Cc2cscn2)s1 (stereo not drawn) [Example 191, N-(imidazo[1,2-a]pyridin-6-ylmethyl)-2-[(tetrahydrofuran-2-ylmethyl)(1,3-thiazol-4-ylacetyl)amino]-1,3-thiazole-5-carboxamide] | 6.09 | 7.84 | 8.22 |
| O=C(NCc1ccc2nccn2c1)c1ccc(C2=CCN(C(=O)C3COCCO3)CC2)cc1 (stereo not drawn) [Example 102, 4-[1-(1,4-dioxan-2-ylcarbonyl)-1,2,3,6-tetrahydropyridin-4-yl]-N-(imidazo[1,2-a]pyridin-6-ylmethyl)benzamide] | 6.41 | 7.89 | 8.92 |
| O=C(NCc1ccc2nccn2c1)c1ccc(C2=CCN(C(=O)C3CCCO3)CC2)cc1 (stereo not drawn) [Example 99, N-(imidazo[1,2-a]pyridin-6-ylmethyl)-4-[1-(tetrahydrofuran-2-ylcarbonyl)-1,2,3,6-tetrahydropyridin-4-yl]benzamide] | 6.92 | 7.58 | 9.39 |
| CC(C)Cn1cc(-c2ccc(C(=O)NCc3ccn4ccnc4c3)cc2)cn1 [Example 315, N-(imidazo[1,2-a]pyridin-7-ylmethyl)-4-[1-(2-methylpropyl)-1H-pyrazol-4-yl]benzamide] | 6.64 | 6.14 | 9.49 |
| CC(C)C(=O)N1CCC(c2ccc(NC(=O)NCc3ccn4ccnc4c3)cc2)CC1 [Example 228, 1-(imidazo[1,2-a]pyridin-7-ylmethyl)-3-{4-[1-(2-methylpropanoyl)piperidin-4-yl]phenyl}urea] | 7.31 | 8.07 | 9.62 |
| O=C(NCc1ccn2ccnc2c1)c1ccc(C2CCN(C(=O)C3CC3)CC2)s1 [Example 260, 5-[1-(cyclopropylcarbonyl)piperidin-4-yl]-N-(imidazo[1,2-a]pyridin-7-ylmethyl)thiophene-2-carboxamide] | 7.33 | 8.09 | 9.45 |
| CCCC(=O)N1CCC(c2ccc(NC(=O)NCc3ccn4ccnc4c3)cc2)CC1 [Example 709, 1-[4-(1-butanoylpiperidin-4-yl)phenyl]-3-(imidazo[1,2-a]pyridin-7-ylmethyl)urea] | 7.71 | 8.47 | 9.33 |
| O=C(NCc1ccn2ccnc2c1)c1ccc(C2CCN(C(=O)CC3CCOCC3)C2)cc1 (stereo not drawn) [Example 378, N-(imidazo[1,2-a]pyridin-7-ylmethyl)-4-[1-(tetrahydro-2H-pyran-4-ylacetyl)pyrrolidin-3-yl]benzamide] | 6.05 | < 5.00 | 9.77 |
| CC(C)S(=O)(=O)N1CCC(c2ccc(C(=O)NCc3ccn4ccnc4c3)cc2)C1 (stereo not drawn) [Example 672, N-(imidazo[1,2-a]pyridin-7-ylmethyl)-4-[1-(propan-2-ylsulfonyl)pyrrolidin-3-yl]benzamide] | 6.50 | 7.10 | 9.30 |
| O=C(NCc1ccc2nccn2c1)c1cnc(N(CC2CCCO2)C(=O)CCc2cc(Cl)no2)s1 (stereo not drawn) [Example 126, 2-{[3-(3-chloro-1,2-oxazol-5-yl)propanoyl](tetrahydrofuran-2-ylmethyl)amino}-N-(imidazo[1,2-a]pyridin-6-ylmethyl)-1,3-thiazole-5-carboxamide] | 6.99 | 8.40 | 9.02 |
| CC(C)CC(=O)N1CCC(O)(c2ccc(C(=O)NCc3ccn4ccnc4c3)s2)CC1 [Example 553, 5-[4-hydroxy-1-(3-methylbutanoyl)piperidin-4-yl]-N-(imidazo[1,2-a]pyridin-7-ylmethyl)thiophene-2-carboxamide] | 6.32 | 6.99 | 9.23 |
| CC(C)(O)C(=O)N1CC=C(c2ccc(C(=O)NCc3ccc4nccn4c3)cc2)CC1 [Example 91, 4-[1-(2-hydroxy-2-methylpropanoyl)-1,2,3,6-tetrahydropyridin-4-yl]-N-(imidazo[1,2-a]pyridin-6-ylmethyl)benzamide] | 6.76 | 7.86 | 8.90 |
| CCCC(=O)N1CCC(c2ccc(C(=O)NCc3ccn4ccnc4c3)s2)C1 (stereo not drawn) [Example 782, 5-(1-butanoylpyrrolidin-3-yl)-N-(imidazo[1,2-a]pyridin-7-ylmethyl)thiophene-2-carboxamide] | 6.87 | 7.61 | 9.33 |
| CC(C)(C)CC(=O)N1CCC(c2ccc(C(=O)NCc3ccn4ccnc4c3)cc2)CC1 [Example 499, 4-[1-(3,3-dimethylbutanoyl)piperidin-4-yl]-N-(imidazo[1,2-a]pyridin-7-ylmethyl)benzamide] | 6.95 | 8.66 | 9.42 |
| O=C(NCc1ccn2ccnc2c1)c1ccc(C2CCN(C(=O)c3cc(F)cc(F)c3)C2)s1 (stereo not drawn) [Example 768, 5-[1-(3,5-difluorobenzoyl)pyrrolidin-3-yl]-N-(imidazo[1,2-a]pyridin-7-ylmethyl)thiophene-2-carboxamide] | 7.55 | 9.04 | 9.17 |
| O=C(NCc1ccn2ccnc2c1)c1ccc(-c2cnn(CC3CCOCC3)c2)s1 [Example 265, N-(imidazo[1,2-a]pyridin-7-ylmethyl)-5-[1-(tetrahydro-2H-pyran-4-ylmethyl)-1H-pyrazol-4-yl]thiophene-2-carboxamide] | 7.48 | 8.80 | 9.58 |
| Cc1ccccc1C(=O)N1CC(c2ccc(C(=O)NCc3ccn4ccnc4c3)cc2)C1 [Example 644, N-(imidazo[1,2-a]pyridin-7-ylmethyl)-4-[1-(2-methylbenzoyl)azetidin-3-yl]benzamide] | 7.09 | 8.39 | 9.16 |
| O=C(NCc1ccn2ccnc2c1)c1ccc(C2CCN(C(=O)c3ccccn3)C2)cc1 (stereo not drawn) [Example 611, N-(imidazo[1,2-a]pyridin-7-ylmethyl)-4-[1-(pyridin-2-ylcarbonyl)pyrrolidin-3-yl]benzamide] | 6.54 | 7.15 | 9.21 |
| O=C(Nc1ccc(C(=O)NCC2CCCCO2)cc1)Nc1ccc2nccn2c1 (stereo not drawn) [Example 23] | 6.55 | 7.38 | 9.39 |
| O=C(NCc1ccn2ccnc2c1)c1ccc(C2CN(C(=O)CC3CCOCC3)C2)cc1 [Example 551, N-(imidazo[1,2-a]pyridin-7-ylmethyl)-4-[1-(tetrahydro-2H-pyran-4-ylacetyl)azetidin-3-yl]benzamide] | 6.15 | 7.26 | 9.41 |
| O=C(NCc1ccn2ccnc2c1)c1ccc(C2CCN(C(=O)C3CCOCC3)C2)cc1 (stereo not drawn) [Example 376, N-(imidazo[1,2-a]pyridin-7-ylmethyl)-4-[1-(tetrahydro-2H-pyran-4-ylcarbonyl)pyrrolidin-3-yl]benzamide] | 5.98 | < 5.00 | 9.52 |
| O=C(NCc1ccn2ccnc2c1)c1ccc(-c2cnn(C[C@H]3CCCO3)c2)o1 [Example 743, N-(imidazo[1,2-a]pyridin-7-ylmethyl)-5-{1-[(2R)-tetrahydrofuran-2-ylmethyl]-1H-pyrazol-4-yl}furan-2-carboxamide] | 7.20 | 8.17 | 9.16 |
| O=C(Nc1ccc(C2=CCN(C(=O)C3CCCO3)CC2)cc1)Nc1ccc2nccn2c1 (stereo not drawn) [Example 33, 1-imidazo[1,2-a]pyridin-6-yl-3-{4-[1-(tetrahydrofuran-2-ylcarbonyl)-1,2,3,6-tetrahydropyridin-4-yl]phenyl}urea] | 6.43 | 7.17 | 9.26 |
| Cn1cc(-c2ccc(C(=O)NCc3ccn4ccnc4c3)s2)cn1 [Example 345, N-(imidazo[1,2-a]pyridin-7-ylmethyl)-5-(1-methyl-1H-pyrazol-4-yl)thiophene-2-carboxamide] | 6.70 | 6.55 | 9.57 |
| CCCC(=O)N1CCC(Oc2ccc(C(=O)NCc3ccc4nccn4c3)cc2)CC1 [Example 168, 4-[(1-butanoylpiperidin-4-yl)oxy]-N-(imidazo[1,2-a]pyridin-6-ylmethyl)benzamide] | 5.95 | 6.68 | 9.02 |
| O=C(NCc1ccn2ccnc2c1)c1ccc(C2CCN(C(=O)c3ccc(F)c(F)c3)CC2)cc1 [Example 701, 4-[1-(3,4-difluorobenzoyl)piperidin-4-yl]-N-(imidazo[1,2-a]pyridin-7-ylmethyl)benzamide] | 6.44 | 7.12 | 9.07 |
